Measured values from publication PMC8151276, “An Integrated Approach toward NanoBRET Tracers for Analysis of GPCR Ligand Engagement” (Molecules, 2021).
Several values for one entry are separate records, joined by “and”; a condition that tells them apart may be missing. Equal entries are not always repeated. Where two headings read alike, the source gives them in different places.

What was measured:
Assay type in all cases: binding
[1] = target: T1, GRM1 (Homo sapiens, UniProt Q13255); test: NanoBRET screen HiBiT-GRM1 in HEK293
T1 construct: purchased Promega (in-house HiBiT-GPCR construct library, NanoBRET)
T1 sequence (Q13255 19-1194): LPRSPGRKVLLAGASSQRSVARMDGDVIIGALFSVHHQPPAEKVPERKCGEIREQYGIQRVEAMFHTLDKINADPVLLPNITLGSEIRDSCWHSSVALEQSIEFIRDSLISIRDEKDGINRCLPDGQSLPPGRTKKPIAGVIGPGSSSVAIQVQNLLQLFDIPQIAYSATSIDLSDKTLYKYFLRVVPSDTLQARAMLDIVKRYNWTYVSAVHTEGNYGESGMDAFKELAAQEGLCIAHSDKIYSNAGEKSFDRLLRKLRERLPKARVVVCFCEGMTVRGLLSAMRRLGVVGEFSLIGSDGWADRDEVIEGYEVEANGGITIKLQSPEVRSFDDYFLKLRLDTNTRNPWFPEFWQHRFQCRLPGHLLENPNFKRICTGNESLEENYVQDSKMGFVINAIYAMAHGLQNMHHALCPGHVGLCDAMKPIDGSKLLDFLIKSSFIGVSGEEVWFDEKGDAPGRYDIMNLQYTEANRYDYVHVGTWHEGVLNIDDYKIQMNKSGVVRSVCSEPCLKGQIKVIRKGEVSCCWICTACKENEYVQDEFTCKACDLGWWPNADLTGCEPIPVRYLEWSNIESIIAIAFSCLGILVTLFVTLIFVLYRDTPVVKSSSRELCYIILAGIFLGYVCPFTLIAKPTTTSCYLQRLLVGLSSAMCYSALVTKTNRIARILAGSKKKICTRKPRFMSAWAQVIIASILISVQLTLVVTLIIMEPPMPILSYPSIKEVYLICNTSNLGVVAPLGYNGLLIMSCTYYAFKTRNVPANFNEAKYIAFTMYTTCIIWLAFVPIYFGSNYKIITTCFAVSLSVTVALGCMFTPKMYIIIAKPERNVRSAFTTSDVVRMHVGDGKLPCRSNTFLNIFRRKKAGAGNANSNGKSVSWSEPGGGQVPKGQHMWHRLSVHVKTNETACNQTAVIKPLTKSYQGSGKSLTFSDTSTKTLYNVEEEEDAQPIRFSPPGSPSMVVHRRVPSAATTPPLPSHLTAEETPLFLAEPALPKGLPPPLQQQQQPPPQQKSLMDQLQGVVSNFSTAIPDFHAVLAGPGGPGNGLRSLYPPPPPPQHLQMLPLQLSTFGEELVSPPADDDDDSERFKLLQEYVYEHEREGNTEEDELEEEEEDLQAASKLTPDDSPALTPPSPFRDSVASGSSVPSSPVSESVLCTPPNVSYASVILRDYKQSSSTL
Description: (§1) Each tracer candidate was screened across the entire library of HiBiT-GPCR constructs using NanoBRET as the detection modality. As depicted in Figure 4A, the specificity of interactions was evaluated through decrease in BRET due to competitive displacement of a bound tracer by excess parental compound. Each tracer was analyzed for binding to each HiBiT-GPCR fusion in the absence and in the presence of competing parental compound. Briefly, HEK293 cells were transfected with HiBiT-GPCR constructs diluted into promoterless DNA to reduce expression and maximize translocation to the cell surface. Each tracer candidate was then screened at concentrations of 1 μM and 0.1 μM across cells expressing these fusions. Cells were treated for 1.5 h with tracer either alone or in the presence of 20 μM competing parental compound (i.e., control). BRET was measured upon addition of purified LgBiT and subsequent complementation with HiBiT genetically fused to a GPCR. The specificity of interactions was assessed through a decrease in BRET signal due to competitive displacement of the bound tracer. To further gauge the robustness of these interactions, the fold response over the control (i.e., BRETtracer/BRETcontrol) was calculated. We chose a 1.5-fold response, which translates to ≥7-fold signal over noise as the minimal threshold required to score an interaction as positive. […]. Below we highlight the screening results obtained for our exemplary fluorescent tracers based on Clozapine, Amitriptyline and AZD1283.
(§2) HiBiT-GPCR DNA constructs were diluted in 10 mM Tris pH 8 to a final concentration of 0.01 μg/μL, arrayed in 96-well plates and stored at −20 °C. For transfection, HEK293 cells were suspended in Opti-MEM (without phenol red) supplemented with 2% fetal bovine serum (Seradigm) and 100 units/mL penicillin–streptomycin (Gibco) at a final concentration of 220,000 cells/mL and dispensed into white 96-well plates at 90 μL/well. Subsequent transfections and screens were carried using an Agilent Bravo Automated Liquid Handling Platform. First, the 96-well HiBiT DNA arrays were diluted 25-fold in Opti-MEM (without serum or phenol red) to a final concentration of 0.0004 μg/μL and 20 μL of the diluted DNAs were transferred into new 96-well plates. Next, promoterless carrier DNA (1 μg/μL) was diluted 25-fold (0.04 μg/μL) and then dispensed into the diluted arrays at 20 μL/well. Following brief mixing, Viafect transfection reagent (Promega) diluted 16-fold into Opti-MEM was dispensed into the plates at 40 μL/well. After mixing by pipetting, plates were incubated for 10 min on the pipetting station deck. The DNA-transfection reagent complexes were then added to plates containing cells. To facilitate the screen, 10 μL of DNA-transfection reagent complexes were added in duplicates to the top 4 and bottom 4 rows, resulting in two identical 48-well arrays per plate. Plates with transfected cells were incubated for 18–20 h at 37 °C/5% CO2. A screen of each tracer across the entire library using two different concentrations requires duplicate plates of transfected cells. Depending on the number of tracers being screened, transfections can be scaled up using the same ratios. The next day, for each tracer, four 20× screening solutions in tracer dilution buffer (Promega) were prepared: two duplicates at final concentration of 20 μM and two duplicates at a final concentration of 2 μM. A competing unmodified compound was added to one of each duplicate at a final concentration of 400 μM. The four resulting solutions were diluted 4-fold in Opti-MEM without serum or phenol red to generate 5× solutions (5 µM and 0.5 µM tracer +/− 100 μM competing compound). To screen the library, a BioTek MultiFlo FX liquid dispenser was used to dispense 22.5 µL of tracer solution to the top 4 rows and 22.5 µL tracer + competing compound solution to the 4 bottom rows. Plates were briefly mixed on an orbital shaker and incubated for 1.5 h at room temperature. […]

[2] = target: T2, NPY2R (Homo sapiens, UniProt P49146); test: NanoBRET screen HiBiT-NPY2R in HEK293
T2 construct: purchased Promega (in-house HiBiT-GPCR construct library, NanoBRET)
T2 sequence (P49146 1-381): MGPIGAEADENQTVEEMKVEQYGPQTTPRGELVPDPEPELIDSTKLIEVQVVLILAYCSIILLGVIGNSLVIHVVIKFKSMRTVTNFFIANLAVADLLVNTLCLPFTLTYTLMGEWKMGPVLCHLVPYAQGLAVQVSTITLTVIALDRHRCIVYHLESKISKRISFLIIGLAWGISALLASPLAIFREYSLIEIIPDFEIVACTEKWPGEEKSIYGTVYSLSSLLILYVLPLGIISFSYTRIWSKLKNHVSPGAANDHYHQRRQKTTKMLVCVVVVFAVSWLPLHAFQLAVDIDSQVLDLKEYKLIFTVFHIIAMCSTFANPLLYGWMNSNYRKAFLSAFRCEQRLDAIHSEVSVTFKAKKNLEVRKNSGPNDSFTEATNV
Description: as §1, §2

[3] = target: T3, NPBWR1 (Homo sapiens, UniProt P48145); test: NanoBRET screen HiBiT-NPBWR1 in HEK293
T3 construct: purchased Promega (in-house HiBiT-GPCR construct library, NanoBRET)
T3 sequence (P48145 1-328): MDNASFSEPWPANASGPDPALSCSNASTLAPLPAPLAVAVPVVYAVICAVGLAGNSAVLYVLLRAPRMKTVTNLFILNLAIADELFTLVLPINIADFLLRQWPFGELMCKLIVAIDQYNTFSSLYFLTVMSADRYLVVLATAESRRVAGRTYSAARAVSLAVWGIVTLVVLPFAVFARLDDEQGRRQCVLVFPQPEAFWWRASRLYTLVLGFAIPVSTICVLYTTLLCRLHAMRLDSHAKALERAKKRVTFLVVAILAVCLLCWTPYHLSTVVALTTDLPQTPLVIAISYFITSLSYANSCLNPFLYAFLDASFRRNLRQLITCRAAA
Description: as §1, §2

[4] = target: T4, HTR2A (Homo sapiens, UniProt P28223); test: NanoBRET screen HiBiT-HTR2A in HEK293
T4 construct: purchased Promega (in-house HiBiT-GPCR construct library, NanoBRET)
T4 sequence (P28223 whole entry): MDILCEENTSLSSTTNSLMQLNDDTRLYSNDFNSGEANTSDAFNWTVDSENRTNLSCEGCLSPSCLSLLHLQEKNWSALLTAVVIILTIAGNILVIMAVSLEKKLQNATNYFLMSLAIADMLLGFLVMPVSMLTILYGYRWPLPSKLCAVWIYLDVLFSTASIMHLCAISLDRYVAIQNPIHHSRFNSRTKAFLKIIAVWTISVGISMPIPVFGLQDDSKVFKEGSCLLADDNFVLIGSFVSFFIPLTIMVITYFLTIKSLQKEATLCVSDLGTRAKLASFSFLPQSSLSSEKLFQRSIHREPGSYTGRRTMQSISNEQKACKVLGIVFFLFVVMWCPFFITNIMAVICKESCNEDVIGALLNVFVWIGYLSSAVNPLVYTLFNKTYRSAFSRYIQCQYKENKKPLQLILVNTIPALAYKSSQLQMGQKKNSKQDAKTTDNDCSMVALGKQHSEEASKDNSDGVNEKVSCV

| SMILES | NanoBRET Fold Response ([1]; GRM1, tracer 0.1μM) | NanoBRET Fold Response ([1]; GRM1, tracer 1μM) | NanoBRET Fold Response ([2]; NPY2R, tracer 0.1μM) | NanoBRET Fold Response ([2]; NPY2R, tracer 1μM) | NanoBRET Fold Response ([3]; NPBWR1, tracer 0.1μM) | NanoBRET Fold Response ([3]; NPBWR1, tracer 1μM) | further results |
| --- | --- | --- | --- | --- | --- | --- | --- |
| O=C(CCc1ccc2n1[B-](F)(F)[N+]1=C(c3ccc[nH]3)C=CC1=C2)NCc1ccc(C(=O)NCCOCCC(=O)N[C@@H]2CC[C@@]3(O)[C@H]4Cc5ccc(O)c6c5[C@@]3(CCN4CC3CC3)[C@H]2O6)cc1 [Naltrexone-3-NB590] | 0.93 | 0.75 | 1.05 | 0.96 | 0.92 | 1.19 | – |
| CCCn1c(=O)c2[nH]c(-c3ccc(OCC(=O)NCCNC(=O)CCOCCNC(=O)c4ccc(CNC(=O)CCc5ccc6n5[B-](F)(F)[N+]5=C(c7ccc[nH]7)C=CC5=C6)cc4)cc3)nc2n(CCC)c1=O [XAC-3-NB590] | 0.63 | 0.80 | 0.93 | 1.03 | 1.03 | 0.96 | NanoBRET Fold Response ([4]; HTR2A, tracer 0.1μM): 0.99; NanoBRET Fold Response ([4]; HTR2A, tracer 1μM): 1.10 |
| CC(C)N(CC[C@H](c1ccccc1)c1cc(CCNC(=O)c2ccc(CNC(=O)CCc3ccc4n3[B-](F)(F)[N+]3=C(c5ccc[nH]5)C=CC3=C4)cc2)ccc1O)C(C)C [Tolterodine-BZ-NB590] | 0.88 | 0.19 | 0.90 | 1.04 | 1.00 | 1.01 | NanoBRET Fold Response ([4]; HTR2A, tracer 0.1μM): 0.93; NanoBRET Fold Response ([4]; HTR2A, tracer 1μM): 1.04 |
| N#CN/C(=N\CCNC(=O)c1ccc(N)cc1)NCCCOc1cccc(CN2CCCCC2)c1 [Aminopotentidine (unmodified)] | – | – | – | – | – | – | NanoBRET Fold Response ([4]; HTR2A, other tracers/Aminopotentidine (unmodified), 0.1μM): 1.10; NanoBRET Fold Response ([4]; HTR2A, other tracers/Aminopotentidine (unmodified), 1μM): 1.07 |
| COc1ccc2[nH]c(-c3ccc(CNC(=O)CCOCCOCCOCCOCCNC(=O)CCc4ccc5n4[B-](F)(F)[N+]4=C(c6ccc[nH]6)C=CC4=C5)cc3)c(CCNC(C)=O)c2n1 [AzomelatoninICO9-2-NB590] | – | – | – | – | – | – | NanoBRET Fold Response ([1]; 0.1μM tracer): 0.66; NanoBRET Fold Response ([1]; 1μM tracer): 1.33; NanoBRET Fold Response ([2]; 0.1μM tracer): 0.99; NanoBRET Fold Response ([2]; 1μM tracer): 0.88; NanoBRET Fold Response ([3]; 0.1μM tracer): 0.87; NanoBRET Fold Response ([3]; 1μM tracer): 1.04; NanoBRET Fold Response ([4]; 0.1μM tracer): 0.92; NanoBRET Fold Response ([4]; 1μM tracer): 1.02 |
| CN1CCN(C2=Nc3cc(Cl)ccc3N(CC(=O)NCCOCCOCCOCCOCCNC(=O)CCc3ccc4n3[B-](F)(F)[N+]3=C(c5ccc[nH]5)C=CC3=C4)c3ccccc32)CC1 [Clozapine-c-2-NB590] | – | – | – | – | – | – | NanoBRET Fold Response ([1]; GRM1, 0.1μM tracer): 0.99; NanoBRET Fold Response ([1]; GRM1, 1μM tracer): 1.00; NanoBRET Fold Response ([2]; NPY2R, 0.1μM tracer): 1.01; NanoBRET Fold Response ([2]; NPY2R, 1μM tracer): 0.99; NanoBRET Fold Response ([3]; NPBWR1, 0.1μM tracer): 0.97; NanoBRET Fold Response ([3]; NPBWR1, 1μM tracer): 1.00 |
| COc1ccccc1N1CCN(CCCCN2C(=O)c3ccc(CNC(=O)CCOCCNC(=O)c4ccc(CNC(=O)CCc5ccc6n5[B-](F)(F)[N+]5=C(c7ccc[nH]7)C=CC5=C6)cc4)cc3C2=O)CC1 [NAN-190-3-NB590] | 1.03 | 1.12 | 1.05 | 1.07 | 0.92 | 0.91 | NanoBRET Fold Response [4]: 1.14 and 1.13 |
| Cc1nc2n(c(=O)c1CCN1CCC(c3noc4cc(F)ccc34)CC1)CCCC2OC(=O)NCCOCCOCCOCCOCCNC(=O)CCc1ccc2n1[B-](F)(F)[N+]1=C(c3ccc[nH]3)C=CC1=C2 (centres unmarked) [Risperidone-2-NB590] | 0.97 | 0.84 | 1.07 | 0.98 | 1.07 | 1.06 | – |
| CN(C)CCC=C1c2ccccc2CCc2ccc(C(=O)NCCNC(=O)CCOCCOCCOCCOCCNC(=O)CCc3ccc4n3[B-](F)(F)[N+]3=C(c5ccc[nH]5)C=CC3=C4)cc21 [Amitriptyline-b-2-NB590] | 0.77 | 0.97 | – | – | – | – | NanoBRET Fold Response ([2]; tracer at 0.1μM, listed as amitriptyline-b-2-NB590): 1.09; NanoBRET Fold Response ([2]; tracer at 1μM, listed as amitriptyline-b-2-NB590): 0.88; NanoBRET Fold Response ([3]; tracer at 0.1μM): 1.04; NanoBRET Fold Response ([3]; tracer at 1μM): 1.03 |
| CN(C)CCC=C1c2ccccc2CCc2ccc(C(=O)NCCNC(=O)CCOCCOCCOCCOCCNC(=O)CCc3ccc4n3[B-](F)(F)[N+]3=C(c5ccc[nH]5)C=CC3=C4)cc21 [Amitriptyline-a-2-NB590] | – | – | – | – | – | – | NanoBRET Fold Response ([2]; tracer at 0.1μM): 0.99; NanoBRET Fold Response ([2]; tracer at 1μM): 0.98 |
| O=C(CCc1ccc2n1[B-](F)(F)[N+]1=C(c3ccc[nH]3)C=CC1=C2)NCCOCCOCCNC(=O)OCCOCCN1CCN(C2=Nc3ccccc3Sc3ccccc32)CC1 [Quetiapine-a-2-NB590] | 0.74 | 1.00 | 0.99 | 0.85 | 1.01 | 1.04 | – |
| Cc1cc2c(s1)Nc1ccccc1N=C2N1CCN(CCCNC(=O)CCOCCOCCOCCOCCNC(=O)CCc2ccc3n2[B-](F)(F)[N+]2=C(c4ccc[nH]4)C=CC2=C3)CC1 [Olanzapine-a-2-NB590] | 0.89 | 1.26 | 1.00 | 0.99 | 0.99 | 1.02 | – |
| CN1CCN(C2=Nc3cc(Cl)ccc3Nc3ccc(CNC(=O)CCOCCOCCOCCOCCNC(=O)CCc4ccc5n4[B-](F)(F)[N+]4=C(c6ccc[nH]6)C=CC4=C5)cc32)CC1 [Clozapine-b-2-NB590] | – | – | – | – | – | – | NanoBRET Fold Response ([1]; GRM1, 0.1μM tracer): 1.05; NanoBRET Fold Response ([1]; GRM1, 1μM tracer): 0.74; NanoBRET Fold Response ([2]; NPY2R, 0.1μM tracer): 1.00; NanoBRET Fold Response ([2]; NPY2R, 1μM tracer): 1.02; NanoBRET Fold Response ([3]; NPBWR1, 0.1μM tracer): 1.05; NanoBRET Fold Response ([3]; NPBWR1, 1μM tracer): 1.07 |
| O=C(CCc1ccc2n1[B-](F)(F)[N+]1=C(c3ccc[nH]3)C=CC1=C2)NCc1ccc(C(=O)NCCOCCOCCNCC(O)COc2cccc3ccccc23)cc1 (centres unmarked) [Propranolol-3-NB590] | – | – | – | – | – | – | NanoBRET Fold Response ([1]; GRM1, 0.1μM): 0.72; NanoBRET Fold Response ([1]; GRM1, 1μM): 0.69; NanoBRET Fold Response ([2]; NPY2R, 0.1μM): 1.02; NanoBRET Fold Response ([2]; NPY2R, 1μM): 1.00; NanoBRET Fold Response ([3]; NPBWR1, 0.1μM): 1.03; NanoBRET Fold Response ([3]; NPBWR1, 1μM): 0.96 |
